Data published in US7943551B2, “3-cyclopropyl-4-(3-thiobenzoyl) pyrazoles and their use as herbicides” (Bayer Cropscience AG, priority 2007, dated 2011).

Assays:
Format in all cases: in vivo
Echinochloa crus galli = test: Post-emergence herbicidal action; conditions: read-out: Herbicidal activity in % against ECHCG; for pest or weed control at 80 g/ha: 80 g of a.i./ha, visual scoring 3-4 weeks after treatment; for pest or weed control at 20 g/ha: 20 g of a.i./ha
Procedure: (§1) Seeds of mono- and dicotyledonous harmful plants are placed in sandy loam in cardboard pots, covered with soil and grown in the greenhouse under good growth conditions. Two to three weeks after sowing, the test plants are treated at the three-leaf stage. The compounds according to the invention, which are formulated as wettable powders or as emulsion concentrates, are sprayed at an application rate of 600 to 800 l of water/ha (converted) in a dosage of 80 grams per hectare onto the surface of the green plant parts. The visual scoring of the damage to the harmful plants is carried out 3-4 weeks after the treatment. Here, the compounds of Nos. 1-39, 1-40, 1-1382 and 1-2091 show an activity of at least 90% against Echinochloa crus galli. The compounds of Nos. 1-3, 1-44 and 1-2091 shown an activity of at least 90% against Abutilon theophrasti. The compounds of Nos. 1-39, 1-40 and 1-1382 show an activity of at least 90% against Veronica persica. The compounds of Nos. 1-3, 1-38, 1-39, 1-1406 and 1-1407 show an activity of at least 90% against Stellaria media.
(§2) The comparative tests of Tables 1 to 24 below show the superiority of the compounds according to the invention over the compounds known from the prior art.
(§3) • ABUTH Abutilon theophrasti ALOMY Alopecurus myosuroides • AMARE Amaranthus retroflexus AVEFA Avena fatua • CHEAL Chenopodium album ECHCG Echinochloa crus galli • GALAP Galium aparine LOLMU Lolium multiflorum • MATIN Matricaria inodora PHBPU Pharbitis purpureum • POLCO Fallopia convolvulus STEME Stellaria media • VERPE Veronica persica VIOTR Viola tricolor • XANST Xanthium strumarium Crop Plants • GLXMA Glycine max (soybeans) TRZAS Triticum aestivum (wheat) • ZEAMX Zea mays (corn)

Abutilon theophrasti [1] = test: Post-emergence herbicidal action; conditions: for pest or weed control at 80 g/ha / pest or weed control at 20 g/ha: Abutilon theophrasti, read-out: Herbicidal activity in % against ABUTH; for pest or weed control at 20 g/ha: 20 g of a.i./ha
Procedure: as §1, with “The compounds according to the invention, which are formulated as wettable powders or as emulsion concentrates, are sprayed at an application rate of 600 to 800 l of water/ha (converted) in a dosage of 80 grams per hectare onto the surface of the green plant parts.” left out
as §2, §3

Stellaria media = test: Post-emergence herbicidal action; conditions: 80 g of a.i./ha, visual scoring 3-4 weeks after treatment; for pest or weed control at 80 g/ha: Stellaria media, read-out: Herbicidal activity in % against STEME
Procedure: as §1, §2, §3

Matricaria inodora [2] = test: Post-emergence herbicidal action; conditions: Tripleurospermum inodorum, 80 g of a.i./ha, read-out: Herbicidal activity in % against MATIN
Procedure: as §1, §2, §3

Pharbitis purpureum = test: Post-emergence herbicidal action; conditions: 80 g of a.i./ha
Procedure: as §1, §2, §3

Xanthium strumarium = test: Post-emergence herbicidal action; conditions: read-out: Herbicidal activity in % against XANST; for pest or weed control at 20 g/ha: 20 g of a.i./ha; for pest or weed control at 80 g/ha: 80 g of a.i./ha
Procedure: as §1, §2, §3

Viola tricolor [3] = test: Pre-emergence herbicidal action; conditions: 80 g of a.i./ha
Source text: Seeds or rhizome pieces of mono- and dicotyledonous harmful plants are placed in sandy loam in pots of a diameter of 9 to 13 cm and covered with soil. The herbicides, formulated as emulsifiable concentrates or dusts, are applied to the surface of the covering soil in the form of aqueous dispersions or suspensions or emulsions at an application rate of 300 to 800 l of water/ha (converted), […] For further cultivation of the plants, the pots are then kept in a greenhouse under optimum conditions. The visual scoring of the damage to the harmful plants is carried out 3-4 weeks after the treatment. Here, the compounds of Nos. 1-3, 1-15, 1-44 and 1-1407 show an activity of at least 90% against Echinochloa crus galli. The compounds of Nos. 1-15, 1-45, 1-1407 and 1-1419 show an activity of at least 90% against Abutilon theophrasti. The compounds of Nos. 1-3, 1-45, 1-1406 and 1-1418 show an activity of at least 90% against Amaranthus retroflexus. The compounds of Nos. 1-44, 1-1406, 1-1407 and 1-1419 show an activity of at least 90% against Stellaria media.
as §2, §3

Matricaria inodora [4] = test: Pre-emergence herbicidal action; conditions: Tripleurospermum inodorum, 320 g of a.i./ha, read-out: Herbicidal activity in % against MATIN
Source text: (§4) Seeds or rhizome pieces of mono- and dicotyledonous harmful plants are placed in sandy loam in pots of a diameter of 9 to 13 cm and covered with soil. The herbicides, formulated as emulsifiable concentrates or dusts, are applied to the surface of the covering soil in the form of aqueous dispersions or suspensions or emulsions at an application rate of 300 to 800 l of water/ha (converted), at a dosage of 320 grams per hectare. For further cultivation of the plants, the pots are then kept in a greenhouse under optimum conditions. The visual scoring of the damage to the harmful plants is carried out 3-4 weeks after the treatment. Here, the compounds of Nos. 1-3, 1-15, 1-44 and 1-1407 show an activity of at least 90% against Echinochloa crus galli. The compounds of Nos. 1-15, 1-45, 1-1407 and 1-1419 show an activity of at least 90% against Abutilon theophrasti. The compounds of Nos. 1-3, 1-45, 1-1406 and 1-1418 show an activity of at least 90% against Amaranthus retroflexus. The compounds of Nos. 1-44, 1-1406, 1-1407 and 1-1419 show an activity of at least 90% against Stellaria media.
as §2, §3

Abutilon theophrasti [5] = test: Pre-emergence herbicidal action; conditions: 320 g of a.i./ha, visual scoring 3-4 weeks after treatment
Source text: as §4, §2, §3

Viola tricolor [6] = test: Post-emergence herbicidal action; conditions: 80 g of a.i./ha, read-out: Herbicidal activity in % against VIOTR
Procedure: as §1, §2, §3

Veronica persica = test: Post-emergence herbicidal action; conditions: 80 g of a.i./ha, visual scoring 3-4 weeks after treatment, read-out: Herbicidal activity in % against VERPE
Procedure: as §1, §2, §3

[7] = 80 g of a.i./ha, visual scoring 3-4 weeks after treatment

COCCSc1c(C(F)(F)F)ccc(C(=O)c2c(C3CC3)nn(C)c2O)c1C [No. 1-2091, 3-cyclopropyl-5-hydroxy-4-(3-(2-methoxyethyl)thio-2-methyl-4-trifluoromethylbenzoyl)-1-methylpyrazole]
pest or weed control at 80 g/ha (Echinochloa crus galli): ≥ 90% | pest or weed control at 80 g/ha (Abutilon theophrasti [1]; [7]): ≥ 90%

COCCSc1c(C(F)(F)F)ccc(C(=O)c2c(C3CC3)nn(C)c2O)c1C [drawing 45]
pest or weed control at 20 g/ha (Echinochloa crus galli): 80% | pest or weed control at 20 g/ha (Abutilon theophrasti [1]): 80%

Cc1c(C(=O)c2c(C3CC3)nn(C)c2O)ccc(Cl)c1SCC1CC1 [No. 1-1406, 4-(4-chloro-3′-cyclopropylmethylthio-2-methylbenzoyl)-3-cyclopropyl-5-hydroxy-1-methylpyrazole]
pest or weed control at 80 g/ha (Stellaria media): ≥ 90%

Cc1c(C(=O)c2c(C3CC3)nn(C)c2O)ccc(Cl)c1SCC1CC1 [drawing 39]
pest or weed control at 80 g/ha (Matricaria inodora [2]): 70% | Herbicidal activity in % against PHBPU (Pharbitis purpureum): 70% | pest or weed control at 80 g/ha (Echinochloa crus galli): 90% | Herbicidal activity in % against STEME (Stellaria media): 100%

COCCSc1c(Cl)ccc(C(=O)c2c(C3CC3)nn(C)c2O)c1C [drawing 41]
pest or weed control at 80 g/ha (Matricaria inodora [2]): 80% | Herbicidal activity in % against PHBPU (Pharbitis purpureum): 80% | pest or weed control at 80 g/ha (Echinochloa crus galli): 90% | pest or weed control at 80 g/ha (Stellaria media): 100%

CCSc1c(Cl)ccc(C(=O)c2c(C3CC3)nn(C)c2O)c1Cl [reference compound]
pest or weed control at 20 g/ha (Xanthium strumarium): 50% | pest or weed control at 20 g/ha (Abutilon theophrasti [1]): 40%

Cc1c(C(=O)c2c(C3CC3)nn(C)c2O)ccc(S(C)(=O)=O)c1SCC1CC1 [No. 1-38, 3-cyclopropyl-4-(3-cyclopropylmethylthio-2-methyl-4-methylsulfonylbenzoyl)-5-hydroxy-1-methylpyrazole]
pest or weed control at 80 g/ha (Stellaria media): ≥ 90%

CC[S+]([O-])c1c(S(C)(=O)=O)ccc(C(=O)c2c(C3CC3)nn(C)c2O)c1C (stereo not shown)
Herbicidal activity in % against VIOTR (Viola tricolor [3]): 60%

COCCSc1c(C(F)(F)F)ccc(C(=O)c2c(C3CC3)nn(C)c2O)c1C [drawing 19]
pest or weed control at 320 g/ha (Matricaria inodora [4]): 60% | Herbicidal activity in % against ABUTH (Abutilon theophrasti [5]): 100%

Cc1c(C(=O)c2c(C3CC3)nn(C)c2O)ccc(S(C)(=O)=O)c1SCC1CC1 [drawing 29]
pest or weed control at 80 g/ha (Xanthium strumarium): 90% | pest or weed control at 80 g/ha (Viola tricolor [6]): 90% | pest or weed control at 80 g/ha (Echinochloa crus galli): 100%

CCSc1c(C(F)(F)F)ccc(C(=O)c2c(C3CC3)nn(C)c2O)c1C
pest or weed control at 320 g/ha (Matricaria inodora [4]): 0% | Herbicidal activity in % against ABUTH (Abutilon theophrasti [5]): 90%

CCSc1c(S(C)(=O)=O)ccc(C(=O)c2c(C3CC3)nn(C)c2O)c1Cl [drawing 48, reference compound]
pest or weed control at 80 g/ha (Matricaria inodora [2]): 0% | pest or weed control at 80 g/ha (Viola tricolor [6]): 60% | pest or weed control at 80 g/ha (Abutilon theophrasti [1]; [7]): 80%

COCCSc1c(S(C)(=O)=O)ccc(C(=O)c2c(C3CC3)nn(C)c2O)c1C
pest or weed control at 80 g/ha (Xanthium strumarium): 90% | pest or weed control at 80 g/ha (Viola tricolor [6]): 90% | pest or weed control at 80 g/ha (Echinochloa crus galli): 90%

COCCSc1c(S(C)(=O)=O)ccc(C(=O)c2c(C3CC3)nn(C)c2O)c1Cl [drawing 47]
pest or weed control at 80 g/ha (Matricaria inodora [2]): 70% | pest or weed control at 80 g/ha (Viola tricolor [6]): 70% | Herbicidal activity in % against ABUTH (Abutilon theophrasti [1]; [7]): 90%

CSc1c(C(F)(F)F)ccc(C(=O)c2c(C3CC3)nn(C)c2O)c1C [drawing 46, reference compound]
pest or weed control at 20 g/ha (Echinochloa crus galli): 60% | pest or weed control at 20 g/ha (Abutilon theophrasti [1]): 70%

CSc1c(C(F)(F)F)ccc(C(=O)c2c(C3CC3)nn(C)c2O)c1C [drawing 20]
pest or weed control at 320 g/ha (Matricaria inodora [4]): 0% | Herbicidal activity in % against ABUTH (Abutilon theophrasti [5]): 50%

CCSc1c(S(C)(=O)=O)ccc(C(=O)c2c(C3CC3)nn(C)c2O)c1C [reference compound]
pest or weed control at 80 g/ha (Xanthium strumarium): 80% | pest or weed control at 80 g/ha (Viola tricolor [6]): 70% | pest or weed control at 80 g/ha (Echinochloa crus galli): 80%

CSc1c(S(C)(=O)=O)ccc(C(=O)c2c(C3CC3)nn(C)c2O)c1Cl [drawing 50, reference compound]
pest or weed control at 80 g/ha (Matricaria inodora [2]): 30% | pest or weed control at 80 g/ha (Viola tricolor [6]): 60% | pest or weed control at 80 g/ha (Abutilon theophrasti [1]; [7]): 80%

COCCSc1c(S(C)(=O)=O)ccc(C(=O)c2c(C3CC3)nn(C)c2O)c1Cl [No. 1-3, 4-(2-chloro-3-(2-methoxyethyl)thio-4-methylsulfonylbenzoyl)-3-cyclopropyl-5-hydroxy-1-methylpyrazole]
pest or weed control at 80 g/ha (Stellaria media): ≥ 90% | pest or weed control at 80 g/ha (Abutilon theophrasti [1]; [7]): ≥ 90%

COCCSc1c(S(C)(=O)=O)ccc(C(=O)c2c(C3CC3)nn(C)c2O)c1Cl [drawing 51]
pest or weed control at 80 g/ha (Veronica persica): 100% | Herbicidal activity in % against PHBPU (Pharbitis purpureum): 60% | Herbicidal activity in % against STEME (Stellaria media): 90%

Cn1nc(C2CC2)c(C(=O)c2ccc(Cl)c(SCC3CC3)c2Cl)c1O
pest or weed control at 20 g/ha (Xanthium strumarium): 70% | pest or weed control at 20 g/ha (Abutilon theophrasti [1]): 60%

CSc1c(S(C)(=O)=O)ccc(C(=O)c2c(C3CC3)nn(C)c2O)c1Cl [drawing 52, reference compound]
pest or weed control at 80 g/ha (Veronica persica): 80% | Herbicidal activity in % against PHBPU (Pharbitis purpureum): 50% | pest or weed control at 80 g/ha (Stellaria media): 80%

CCSc1c(Cl)ccc(C(=O)c2c(C3CC3)nn(C)c2O)c1C [drawing 40, reference compound]
pest or weed control at 80 g/ha (Matricaria inodora [2]): 40% | Herbicidal activity in % against PHBPU (Pharbitis purpureum): 40% | pest or weed control at 80 g/ha (Echinochloa crus galli): 80% | pest or weed control at 80 g/ha (Stellaria media): 90%

COCC[S+]([O-])c1c(S(C)(=O)=O)ccc(C(=O)c2c(C3CC3)nn(C)c2O)c1C (stereo not shown) [drawing 11]
Herbicidal activity in % against VIOTR (Viola tricolor [3]): 70%

CSc1c(S(C)(=O)=O)ccc(C(=O)c2c(C3CC3)nn(C)c2O)c1C [drawing 30, reference compound]
pest or weed control at 80 g/ha (Xanthium strumarium): 60% | pest or weed control at 80 g/ha (Viola tricolor [6]): 70% | pest or weed control at 80 g/ha (Echinochloa crus galli): 80%
